Measurements as given in ChEMBL document CHEMBL1144595, “Novel pyridinyl and pyrimidinylcarbazole sulfonamides as antiproliferative agents” (Bioorg Med Chem Lett, 2007).

Columns and labels:
Type in all cases: functional, cell-based
[1] = Antiproliferative activity against human DND1 cells
CCRF-CEM = test: Cytotoxicity against human CEM cells
MOLT-3 = test: Antiproliferative activity against human Molt3 cells
DU-145 = test: Antiproliferative activity against human DU145 cells
MCF7 = test: Antiproliferative activity against human MCF7 cells
PC-3 = test: Antiproliferative activity against human PC3 cells
Bel-7402 = test: Antiproliferative activity against human Bel-7402 cells

| Structure (SMILES) | IC50 (CCRF-CEM) [nM] | also measured |
| --- | --- | --- |
| COc1ccc(/C=C\c2cc(OC)c(OC)c(OC)c2)cc1O [COMBRETASTATIN A4] |  | IC50 [1]: 2.5 nM |
| COc1ccc(/C=C\c2ccc(OC)c(O)c2)c(OC)n1 | 342 |  |
| CCn1c2ccccc2c2cc(S(=O)(=O)Nc3ccc(C)nc3C)ccc21 | > 2000 |  |
| COc1ccc(NS(=O)(=O)c2ccc3c(c2)CCN3C)c(OC)n1 | > 2000 |  |
| CCn1c2ccccc2c2cc(S(=O)(=O)Nc3cc(Cl)nc(Cl)c3)ccc21 | > 2000 |  |
| CCn1c2ccccc2c2cc(S(=O)(=O)Nc3cc(OC)ncn3)ccc21 | > 2000 |  |
| CCn1c2ccccc2c2cc(/C=C\c3ccc(OC)nc3OC)ccc21 | > 2000 |  |
| COc1ccc(/C=C/c2ccc(OC)c(O)c2)c(OC)n1 | > 2000 |  |
| CCn1c2ccccc2c2cc(S(=O)(=O)Nc3ccc(OC)nc3)ccc21 | 649 |  |
| CCn1c2ccccc2c2cc(/C=C/c3ccc(OC)nc3OC)ccc21 | > 2000 |  |
| CCn1c2ccccc2c2cc(S(=O)(=O)Nc3nc(OC)cc(OC)n3)ccc21 | > 2000 |  |
| CCn1c2ccccc2c2cc(S(=O)(=O)Nc3cc(OC)c(OC)c(OC)c3)ccc21 | 56 | IC50 [1]: 89 nM |
| CCn1c2ccccc2c2cc(S(=O)(=O)Nc3cccnc3OC)ccc21 | 786 |  |
| COc1cc([C@@H]2c3cc4c(cc3[C@H](O)[C@H]3COC(=O)[C@H]23)OCO4)cc(OC)c1OC [PODOFILOX] | 7.2 | IC50 [1]: 12 nM |
| CCn1c2ccccc2c2cc(S(=O)(=O)Nc3ccc(OC)nc3OC)ccc21 | 122 | IC50 [1]: 193 nM; IC50 (MOLT-3): 22 nM; IC50 (DU-145): 729 nM; IC50 (MCF7): 241 nM; IC50 (PC-3): 603 nM; IC50 (Bel-7402): 976 nM |
| CCn1c2ccccc2c2cc(S(=O)(=O)Nc3ccc(OC)cc3OC)ccc21 | 57 | IC50 [1]: 120 nM |
| COc1ccc(NS(=O)(=O)c2ccc3c(c2)c2ccccc2n3C)c(OC)n1 | 101 |  |
| COc1ccc(NS(=O)(=O)c2ccc3c(ccn3C)c2)c(OC)n1 | 712 |  |
| CCn1c2ccccc2c2cc(S(=O)(=O)Nc3ccc(Cl)nc3Cl)ccc21 | > 2000 |  |
| CCn1c2ccccc2c2cc(S(=O)(=O)Nc3cc(OC)nc(OC)n3)ccc21 | > 2000 |  |
